Read-outs that look alike come from different tables or passages of the source.
Legend:
[1] = Metabolism and clearance in normal mice (plasma and urine, LC MS/MS); type: in vivo
Protocol: The metabolism and clearance of Suc-Ile-Ala-Leu-Dox was studied in normal mice. The mice were administered Suc-Ile-Ala-Leu-Dox at a single intravenous bolus dose of 117 mg/kg. Plasma samples were obtained at 1 and 4 hours. Plasma samples of 100 μl were transferred to Eppendorf tubes (1.5 mL) and an internal standard of daunorubicin (20 μL at 0.5 mg/ml) was added together with acetonitrile (400 μl). The tubes were capped and briefly vortexed followed by centrifugation at 14,000 rpm. 420 μl from each tube was removed and dried in vacuo. Each sample was reconstituted in 65 μl ammonium formate containing acetonitrile (20%) prior to analysis by reverse phase liquid chromatography in combination with tandem mass spectrometry (LC MS/MS).
Urine was collected at 2 and 24 hours post administration from pairs of mice in metabolic cages. Urine samples were diluted with ammonium formate containing acetonitrile (20%) to give a target analyte concentration within the practical range of the LC MS/MS assay. 30 μl of each diluted sample was placed in an Eppendorf tube (1.5 ml) and an internal standard of daunorubicin (20 μL at 0.5 mg/ml) was added together with 50 μl of ammonium formate containing acetonitrile (20%). Each sample was then analyzed by LC MS/MS.
An Agilent HP 1100. HPLC with DAD detector and Chemstation software was coupled to a PE Sciex API 365 mass spectrometer with an electrospray ion source.
HPLC was performed on a TSK-Gel Super ODS, […], 4.6×50 mm (TosoHaas) reversed phase column equipped with a […] C18 guard disc (Higgins Analytical) and stainless steel frit (Upchurch Scientific). Chromatography was performed at room temperature. The flow rate was 0.5 ml/min. Injection volume was 50 μl. Gradient elution was performed using a mobile phase of 20 mM ammonium formate with increasing amounts of acetonitrile. The API 365 was operated at 365° C. in a multiple reaction monitoring mode, set to monitor specific analyte parent-daughter ion pairs. Integration of chromatograms was performed by MacQuan software (PE Sciex) and quantitation of each analyte obtained by comparison to previously obtained calibration curves. Daunorubicin was used as an internal standard in all cases.
Percent of administered dose—plasma volume estimated at 40% of blood volume, which was calculated at 7% of animal's body weight.
Plasma samples were obtained at 1 and 4 hours from separate mice. Urine was collected at 2 and 24 hours post administration from pairs of mice in metabolic cages. The plasma and urine samples were prepared and analyzed as described in Example 4.

[2] = Initial single dose Maximum Tolerated Dose (MTD) study, 28 days; type: in vivo, mice; conditions: mouse, in vivo, intravenous
Protocol: In our initial single dose Maximum Tolerated Dose (MTD) study, groups of five normal mice were administered intravenous bolus doses of Suc-Ile-Ala-Leu-Dox. The mice were observed daily for 28 days and body weights measured twice weekly.
The mice were observed daily for 28 days and body weights measured twice weekly.
In the single dose Maximum Tolerated Dose (MTD) studies, groups of normal mice were administered intravenous bolus doses of the prodrug. The mice were observed daily for 28 days and body weights measured twice weekly. The MTD was estimated to be equal to the highest dose that produced no death in mice after 28 days.

[3] = Repeat-dose tolerance (RD-MTD) in tumor bearing mice; type: in vivo; conditions: mouse, in vivo, corrected results
Protocol: In repeat-dose studies in tumor bearing mice, groups of ten mice were dosed with various amounts of prodrug for a total of five doses at either five day or 1 week intervals.

[4] = test system: carcinoma cell trouase (MCF 7/6 cell homogenate, MCF 7/6 conditioned media, HeLa cell extract anion exchange fraction pool); assay: Cleavage assay with carcinoma cell enzyme (trouase) preparations; type: biochemical, human; conditions: under appropriate assay conditions
Protocol: A good candidate for a prodrug with improved therapeutic index is activated by cancer cells but relatively stable in whole human blood. Three different preparations of carcinoma cell trouase were used to screen various test compounds. These three preparations were as follows:
(a) MCF 7/6 (breast carcinoma) cell homogenate
(b) MCF 7/6 (breast carcinoma) conditioned media, and
(c) HeLa (cervical carcinoma) cell extract anion exchange fraction pool.
MCF 7/6 cells were grown to confluence in a serum free medium containing DMEM:F12 (1:1), 50 mg/L bovine serum albumin, ITS-X (10 mg/L insulin, 5.5 mg/L transferrin, 6.7 μg/L Na selenite, 2 mg/L ethanolamine), and Lipid Concentrate (Gibco #21900-030)100 mL of cells were harvested by centrifugation at 4° C. 10,000×g, for 20 min and decanting the supernatant. The pellet was resuspended in 2 mL phosphate buffered saline (Gibco) and centrifuged at 18,000×g for 10 min. […]
A portion of the ultracentrifugation supernatant was diluted 2-fold with a 20 mM triethanolamine-HCl pH 7.2 buffer containing 0.01% (w/v) Triton X-100 and 0.02% (w/v) sodium azide (equilibration buffer). […] Its transformation into Ala-Leu-Dox was quantified by reverse phase high performance liquid chromatography utilizing fluorescence detection of the anthracycline moiety. […]

[5] = Metabolism and clearance in normal mice (plasma and urine, LC MS/MS); type: in vivo; remark: listed apart in the source
[6] = after Suc-Ile-Ala-Leu-Dox 117 mg/kg single intravenous bolus
[7] = after Suc-βAla-Ile-Ala-Leu-Dox 117 mg/kg single intravenous bolus

## COc1cccc2c1C(=O)c1c(O)c3c(c(O)c1C2=O)C[C@@](O)(C(=O)CO)C[C@@H]3O[C@H]1C[C@H](NC(=O)[C@H](CC(C)C)NC(=O)[C@H](C)N)[C@H](O)[C@H](C)O1 [Ala-Leu-Dox]
[1]; mouse, in vivo
  Plasma 1 hr, percent of administered dose: 0.00 % of administered dose
  Plasma 4 hr, percent of administered dose: 0.00 % of administered dose
  Urine 24 hr, percent of administered dose: 0.00 % of administered dose

## COc1cccc2c1C(=O)c1c(O)c3c(c(O)c1C2=O)C[C@@](O)(C(=O)CO)C[C@@H]3O[C@H]1C[C@H](NC(=O)[C@H](CC(C)C)NC(=O)[C@H](C)NC(=O)[C@H](CC(C)C)NC(=O)CCC(=O)O)[C@H](O)[C@H](C)O1 [Suc-Leu-Ala-Leu-Dox, reference compound]
mouse, in vivo
  Major Plasma Metabolite, Table 7: Leu-Dox
  Major Plasma Metabolite, Table 8: Leu-Dox
[2]; 28 days, uncorrected doses, read-out: SD MTD (mg/kg), Table 7
  MTD at 28 days: > 117 mg/kg
[2]; SD MTD, doxorubicin equivalent dose, Table 8, value in parentheses, corrected results
  MTD at 28 days: 35 mg/kg
[2]; SD MTD, molar equivalent dose of doxorubicin, Table 7, value in parentheses, uncorrected
  MTD at 28 days: > 70 mg/kg
[2]; corrected results, read-out: SD MTD (mg/kg), Table 8
  MTD at 28 days: 59 mg/kg
[3]; Repeat Dose MTD, doxorubicin equivalent dose, Table 8, value in parentheses
  MTD at 60 days: 31 mg/kg
[3]; Q 5D × 5 or Q 7D × 5, read-out: Repeat Dose MTD (mg/kg), Table 8
  MTD at 60 days: 52 mg/kg

## COc1cccc2c1C(=O)c1c(O)c3c(c(O)c1C2=O)C[C@@](O)(C(=O)CO)C[C@@H]3O[C@H]1C[C@H](NC(=O)[C@H](CC(C)C)NC(=O)[C@H](C)NC(=O)[C@H](CC(C)C)NC(=O)CCNC(=O)CCC(=O)O)[C@H](O)[C@H](C)O1 [Suc-βAla-Leu-Ala-Leu-Dox, reference compound]
mice
  Major Plasma Metabolite, Table 7: Ala-Leu-Dox
  Major Plasma Metabolite, Table 8: Ala-Leu-Dox

## CC[C@H](C)[C@H](NC(=O)CCNC(=O)CCC(=O)O)C(=O)N[C@@H](C)C(=O)N[C@@H](CC(C)C)C(=O)N[C@H]1C[C@H](O[C@H]2C[C@](O)(C(C)=O)Cc3c(O)c4c(c(O)c32)C(=O)c2c(OC)cccc2C4=O)O[C@@H](C)[C@H]1O [succinyl-βAla-Ile-Ala-Leu-Daunorubicin]
[4]
  cleavage activity of trouase: at least twenty-fold less active

## COc1cccc2c1C(=O)c1c(O)c3c(c(O)c1C2=O)C[C@@](O)(C(=O)CO)C[C@@H]3O[C@H]1C[C@H](NC(=O)[C@@H](N)CC(C)C)[C@H](O)[C@H](C)O1 [Leu-Dox]
[1]; [6]
  Plasma 1 hr, percent of administered dose: 0.02 % of administered dose
  Plasma 4 hr, percent of administered dose: 0.00 % of administered dose
[1]; after Suc-Ile-Ala-Leu-Dox 117 mg/kg, collected 0-2 hours
  Urine 2 hr, percent of administered dose: 1.17 % of administered dose
[1]; after Suc-Ile-Ala-Leu-Dox 117 mg/kg, collected 2-24 hours
  Urine 24 hr, percent of administered dose: 2.25 % of administered dose
[5]; [7]
  Plasma 1 hr, percent of administered dose: 0.04 % of administered dose
  Plasma 4 hr, percent of administered dose: 0.00 % of administered dose
[5]; after Suc-βAla-Ile-Ala-Leu-Dox 117 mg/kg, collected 0-2 hours
  Urine 2 hr, percent of administered dose: 4.69 % of administered dose
[5]; after Suc-βAla-Ile-Ala-Leu-Dox 117 mg/kg, collected 2-24 hours
  Urine 24 hr, percent of administered dose: 2.29 % of administered dose

## COc1cccc2c1C(=O)c1c(O)c3c(c(O)c1C2=O)C[C@@](O)(C(C)=O)C[C@@H]3O[C@H]1C[C@H](NC(=O)[C@H](CC(C)C)NC(=O)[C@H](C)NC(=O)[C@H](CC(C)C)NC(=O)CCNC(=O)CCC(=O)O)[C@H](O)[C@H](C)O1 [succinyl-βAla-Leu-Ala-Leu-Daunorubicin, reference compound]
[4]
  cleavage activity of trouase: readily cleaves

Source: patent US7696313B2, “Prodrug compounds with isoleucine” (priority 2000, dated 2010)
